# Source: publication PMC10349134, “The RNA-binding protein LRPPRC promotes resistance to CDK4/6 inhibition in lung cancer” (Nature Communications, 2023)
# Biological target: T1, LRPPRC (endogenous, A549 cells) (Homo sapiens, UniProt P42704)
# T1 construct: endogenous protein in A549 lung adenocarcinoma cells; no tag
# Assay: cellular thermal shift assay (CETSA), immunoblot
# Assay type: cell-based
# Settings: 40 μM GAA vs DMSO
smiles,measurement,value
Cc1cc2c(C(C)C)c(O)c(O)c(C=O)c2c(O)c1-c1c(C)cc2c(C(C)C)c(O)c(O)c(C=O)c2c1O [GAA],CETSA thermal stabilization,GAA could increase the thermal stabilization of LRPPRC
